Drawing on patent US20260028336A1 (Arcus Biosciences, Inc., priority 2022, published 2026), this text covers IC50 for 19 compounds.

pIC50: −log10 of the molar value.

The target in this test is T1, Cbl-b (Homo sapiens, UniProt Q13191).
T1 construct: biotin (biotinylated)
T1 sequence (Q13191 whole entry, species assumed): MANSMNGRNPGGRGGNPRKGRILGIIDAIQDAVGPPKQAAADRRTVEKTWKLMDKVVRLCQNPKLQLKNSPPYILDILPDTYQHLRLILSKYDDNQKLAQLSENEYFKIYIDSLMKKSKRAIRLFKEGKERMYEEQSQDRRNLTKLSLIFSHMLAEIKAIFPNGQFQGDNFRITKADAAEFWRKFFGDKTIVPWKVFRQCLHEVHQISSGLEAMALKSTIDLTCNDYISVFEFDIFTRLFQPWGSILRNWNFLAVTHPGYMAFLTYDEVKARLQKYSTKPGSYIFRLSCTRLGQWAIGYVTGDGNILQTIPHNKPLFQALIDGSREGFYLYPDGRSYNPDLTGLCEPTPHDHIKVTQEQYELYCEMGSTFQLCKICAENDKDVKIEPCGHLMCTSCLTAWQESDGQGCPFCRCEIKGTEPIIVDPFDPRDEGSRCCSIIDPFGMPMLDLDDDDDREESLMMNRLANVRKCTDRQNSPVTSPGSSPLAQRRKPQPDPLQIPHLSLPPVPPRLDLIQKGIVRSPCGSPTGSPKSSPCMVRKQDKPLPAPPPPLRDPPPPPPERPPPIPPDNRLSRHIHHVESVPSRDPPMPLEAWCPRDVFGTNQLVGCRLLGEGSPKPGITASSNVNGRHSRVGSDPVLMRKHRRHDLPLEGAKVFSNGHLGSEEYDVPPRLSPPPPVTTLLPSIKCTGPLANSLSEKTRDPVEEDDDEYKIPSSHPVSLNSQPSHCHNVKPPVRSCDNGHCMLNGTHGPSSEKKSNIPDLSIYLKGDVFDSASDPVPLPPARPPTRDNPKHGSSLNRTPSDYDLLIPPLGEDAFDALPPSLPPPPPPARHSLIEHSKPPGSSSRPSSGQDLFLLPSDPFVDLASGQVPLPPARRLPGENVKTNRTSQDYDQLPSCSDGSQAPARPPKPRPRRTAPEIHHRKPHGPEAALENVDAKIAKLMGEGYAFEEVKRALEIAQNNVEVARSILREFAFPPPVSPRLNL
Description: Cbl-b probe displacement HTRF binding assay. As to conditions: 0.4 nM biotinylated Cbl-b, 150 nM BODIPY probe. How it is done:
The affinity with which compounds of the present dislcosure bind to Cbl-b was assessed using probe displacement homologous time resolved fluorescence (HTRF) assays. […] The assays were performed in assay buffer consisting of 20 mM Hepes, 150 mM NaCl, 0.01% Triton X-100, 0.5 mM TCEP, 0.01% BSA. On the day of the assay, a 20 point, 1:2 master serial dilution of each compound was prepared in DMSO to span a final concentration range of […] to 0 nM. Two hundred nanoliters of diluted compound was added to each well of a 384-well plate. Fifteen microliters of biotinylated-Cbl-b resuspended in assay buffer were added to each well and the plate incubated for 60 minutes at room temperature prior to addition of 5 μL of BODIPY™ probe in assay buffer. […] After a further 15 minutes of incubation at room temperature, 5 μl of Streptavidin-Terbium cryptate reagent at 5-fold final concentration was added to each well of the 384-well plate. Binding of a probe to Cbl-b results in an increase of HTRF signal. […] Percentage maximum activity in each test well was calculated based on DMSO (maximum activity, 0% displacement) and no protein control wells (baseline activity, 100% displacement). Binding affinity was determined from a dose response curve fitted using a standard four parameter fit equation.
Background: TR-FRET usually uses a lanthanide donor and a delayed reading to cut background.
For orientation: pIC50 means −log10 of the IC50, conventionally taken in molar units. Read a low pIC50 as a large IC50. `CC1CC(c2cccc(-n3cc(C4CC4)c4c(CN5CCC[C@H](C)C5)c[nH]c4c3=O)c2)(c2nncn2C)C1` (mixture of isomers) [Example 15, 4-Cyclopropyl-6-{3-[3-methyl-1-(4-methyl-4H-1,2,4-triazol-3-yl)cyclobutyl]phenyl}-3-{[(3S′)-3-methylpiperidin-1-yl]methyl}-1H,6H,7H-pyrrolo[2,3-c]pyridin-7-one] gave a pIC50 of 6.00 to 7.00.

In turn, `CC1CC(c2cccc(-n3cc(C4CC4)c4c(CO)c[nH]c4c3=O)c2)(c2nncn2C)C1` (mixture of isomers) [Example 16, 4-Cyclopropyl-3-(hydroxymethyl)-6-{3-[3-methyl-1-(4-methyl-4H-1,2,4-triazol-3-yl)cyclobutyl]phenyl}-1H,6H,7H-pyrrolo[2,3-c]pyridin-7-one] gave a pIC50 of 6.00 to 7.00.

On to `CC1CC(c2cccc(-n3cc(C4CC4)c4cc(-c5cnn(C)c5)[nH]c4c3=O)c2)(c2nncn2C)C1` (mixture of isomers) [Example 32, 4-cyclopropyl-6-{3-[3-methyl-1-(4-methyl-4H-1,2,4-triazol-3-yl)cyclobutyl]phenyl}-2-(1-methyl-1H-pyrazol-4-yl)-1H,6H,7H-pyrrolo[2,3-c]pyridin-7-one], for which the pIC50 is 5.30 to 6.00.

Take `CC1CC(c2cccc(-n3cc(C(F)(F)F)c4c(C#N)c[nH]c4c3=O)c2)(c2nncn2C)C1` (mixture of isomers) [Example 136, 7-Oxo-6-{3-[(1R,3S)-3-methyl-1-(4-methyl-4H-1,2,4-triazol-3-yl)cyclobutyl]phenyl}-4-(trifluoromethyl)-1H,6H,7H-pyrrolo[2,3-c]pyridine-3-carbonitrile]: the negative-log IC50 (pIC50) was above 7.00.

In turn, `CC1CC(c2cccc(-n3cc(C(F)(F)F)c4c(S(C)(=O)=O)c[nH]c4c3=O)c2)(c2nncn2C)C1` (mixture of isomers) [Example 139, 3-Methanesulfonyl-6-{3-[(1S,3R)-3-methyl-1-(4-methyl-4H-1,2,4-triazol-3-yl)cyclobutyl]phenyl}-4-(trifluoromethyl)-1H,6H,7H-pyrrolo[2,3-c]pyridin-7-one] showed a pIC50 above 7.00.

On to `Cn1cnnc1[C@]1(c2cccc(-n3ccc4c(C5CC5)c[nH]c4c3=O)c2)C[C@H](C)C1` (single isomer, unassigned) [Example 13, 3-cyclopropyl-6-{3-[(1r,3s)-3-methyl-1-(4-methyl-4H-1,2,4-triazol-3-yl)cyclobutyl]phenyl}-1H,6H,7H-pyrrolo[2,3-c]pyridin-7-one], for which the pIC50 was 6.00 to 7.00.

Take `Cn1cnnc1[C@]1(c2cccc(-n3cc(C4CC4)c4c(C(=O)O)c[nH]c4c3=O)c2)C[C@H](C)C1` (single isomer, unassigned) [Example 19, 4-Cyclopropyl-7-oxo-6-{3-[(1r,3s)-3-methyl-1-(4-methyl-4H-1,2,4-triazol-3-yl)cyclobutyl]phenyl}-1H,6H,7H-pyrrolo[2,3-c]pyridine-3-carboxylic acid]: the pIC50 was 5.30 to 6.00.

In the case of `Cn1cnnc1[C@]1(c2cccc(-n3cc(C4CC4)c4c(C(=O)O)c[nH]c4c3=O)c2)C[C@@H](C)C1` (single isomer, unassigned) [Example 20, 4-Cyclopropyl-7-oxo-6-{3-[(1s,3r)-3-methyl-1-(4-methyl-4H-1,2,4-triazol-3-yl)cyclobutyl]phenyl}-1H,6H,7H-pyrrolo[2,3-c]pyridine-3-carboxylic acid], the negative-log IC50 (pIC50) is 5.30 to 6.00.

`CC(=O)c1c[nH]c2c(=O)n(-c3cccc([C@]4(c5nncn5C)C[C@@H](C)C4)c3)cc(C3CC3)c12` (single isomer, unassigned) [Example 21, 3-Acetyl-4-cyclopropyl-6-{3-[(1r,3s)-3-methyl-1-(4-methyl-4H-1,2,4-triazol-3-yl)cyclobutyl]phenyl}-1H,6H,7H-pyrrolo[2,3-c]pyridin-7-one]: the negative logarithm of the IC50 (pIC50) is above 7.00.

Take `CC(=O)c1c[nH]c2c(=O)n(-c3cccc([C@]4(c5nncn5C)C[C@H](C)C4)c3)cc(C3CC3)c12` (single isomer, unassigned) [Example 22, 3-Acetyl-4-cyclopropyl-6-{3-[(1s,3r)-3-methyl-1-(4-methyl-4H-1,2,4-triazol-3-yl)cyclobutyl]phenyl}-1H,6H,7H-pyrrolo[2,3-c]pyridin-7-one]: the pIC50 is above 7.00.

As for `CC(O)c1c[nH]c2c(=O)n(-c3cccc([C@]4(c5nncn5C)C[C@@H](C)C4)c3)cc(C3CC3)c12` (single isomer, unassigned) [Example 23], the pIC50 is 6.00 to 7.00.

On to `CC(O)c1c[nH]c2c(=O)n(-c3cccc([C@]4(c5nncn5C)C[C@H](C)C4)c3)cc(C3CC3)c12` (single isomer, unassigned) [Example 24], for which the pIC50 was 6.00 to 7.00.

Turning to `Cn1cnnc1[C@]1(c2cccc(-n3cc(C4CC4)c4c(S(C)(=O)=O)c[nH]c4c3=O)c2)C[C@H](C)C1` (single isomer, unassigned) [Example 25, 4-Cyclopropyl-3-methanesulfonyl-6-{3-[(1r,3s)-3-methyl-1-(4-methyl-4H-1,2,4-triazol-3-yl)cyclobutyl]phenyl}-1H,6H,7H-pyrrolo[2,3-c]pyridin-7-one], the pIC50 was 6.00 to 7.00.

`Cn1cnnc1[C@]1(c2cccc(-n3cc(C4CC4)c4c(S(C)(=O)=O)c[nH]c4c3=O)c2)C[C@@H](C)C1` (single isomer, unassigned) [Example 26, 4-Cyclopropyl-3-methanesulfonyl-6-{3-[(1s,3r)-3-methyl-1-(4-methyl-4H-1,2,4-triazol-3-yl)cyclobutyl]phenyl}-1H,6H,7H-pyrrolo[2,3-c]pyridin-7-one] gave a pIC50 of 6.00 to 7.00.

`Cn1cnnc1[C@]1(c2cccc(-n3ccc4c(C#N)c[nH]c4c3=O)c2)C[C@H](C)C1` (single isomer, unassigned) [Example 27, 7-Oxo-6-{3-[(1r,3s)-3-methyl-1-(4-methyl-4H-1,2,4-triazol-3-yl)cyclobutyl]phenyl}-1H,6H,7H-pyrrolo[2,3-c]pyridine-3-carbonitrile]: the pIC50 was 6.00 to 7.00.

`Cn1cnnc1[C@]1(c2cccc(-n3ccc4c(C#N)c[nH]c4c3=O)c2)C[C@@H](C)C1` (single isomer, unassigned) [Example 28, 7-Oxo-6-{3-[(1s,3r)-3-methyl-1-(4-methyl-4H-1,2,4-triazol-3-yl)cyclobutyl]phenyl}-1H,6H,7H-pyrrolo[2,3-c]pyridine-3-carbonitrile] had a pIC50 of 6.00 to 7.00.

In the case of `Cn1cnnc1[C@]1(c2cccc(-n3ccc4cc[nH]c4c3=O)c2)C[C@H](C)C1` (single isomer, unassigned) [Example 30, 6-{3-[(1r,3s)-3-methyl-1-(4-methyl-4H-1,2,4-triazol-3-yl)cyclobutyl]phenyl}-1H,6H,7H-pyrrolo[2,3-c]pyridin-7-one], the pIC50 is 5.30 to 6.00.

Compound `Cn1cnnc1[C@]1(c2cccc(-n3ccc4cc[nH]c4c3=O)c2)C[C@@H](C)C1` (single isomer, unassigned) [Example 31, 6-{3-[(1s,3r)-3-methyl-1-(4-methyl-4H-1,2,4-triazol-3-yl)cyclobutyl]phenyl}-1H,6H,7H-pyrrolo[2,3-c]pyridin-7-one] gave a pIC50 of 5.30 to 6.00.

The compound `Cn1cncc1-c1c[nH]c2c(=O)n(-c3cccc([C@]4(c5nncn5C)C[C@H](C)C4)c3)cc(C3CC3)c12` (single isomer, unassigned) [Example 35] showed a pIC50 above 7.00.
